# According to patent publication US20110152218A1, “CRYSTALLINE PHOSPHOLIPID, METHOD FOR ITS PRODUCTION AND USE IN TREATING DAMAGED TISSUE” (priority 2008, published 2011):
# Key:
# [1] = test system: human peritoneal mesothelial cell (HPMC); experiment: HPMC proliferation, Alamar Blue and MTT assay; type: cell-based; settings: 48 hours and 72 hours; over the tested concentrations in supplemented M199
# Method: The effect of a phospholipid prepared as described in Example 1 (and/or its constituent compounds) to induce human peritoneal mesothelial cell proliferation was assessed using an Alamar Blue™ assay and an MTT assay.
# The Alamar Blue™ assay is designed to measure the proliferation of various cell types by measuring the ability of the cells to metabolise and reduce a REDOX indicator (Alamar Blue™). Reduction of the REDOX indicator results in a change in its fluorescent activity. Therefore the fluorescent activity measured is proportional to cell proliferation.
# The MTT Assay measures the proliferations of various cells and is based on the mitochondrial conversion of tetrazolium salt 3-[4,5-dimethyl-thiazol-2-yl]-2,5-diphenyltetrazium bromide (MTT), into an insoluble formazan salt. The resultant colour change is directly related to the number of viable cells.
# As described in Morgan L W et al (“Glucose degradation products (GDP) retard re-mesothelialisation independently of D-glucose concentration.” Kidney Int 64:1854-1866, 2003), primary HPMC are isolated from omental tissue biopsies donated by consenting patients undergoing elective abdominal surgery. Cells were grown to approximately 60% confluence in 96 well plates (Falcon) and used at passage 2. All cells were growth arrested in serum free M199 for 24 hours prior to use.
# The supplemented M199 medium was prepared as follows. Earle's salt medium M199 was supplemented with 100μ/ml penicillin, 100 μg/ml streptomycin, 2 mM glutamine, 5 μg/ml insulin, 5 μg/ml transferrin and 0.4 μg/ml hydrocortisone and 2 mmol/L N-2-hydroxyethylpiperazine-N′-2ethanesulfonic acid.
# The phospholipid prepared as described in Example 1 was prepared as follows. […]
# The growth medium was aspirated from each well and then the well was washed once using 200 μl per well of supplemented M199. […] The fluorescent activity of Alamar Blue™ at 540 nm (wavelength) was measured using a Dynex Revalation 96-multiwell plate reader. […]
# HPMC [2] = experiment: HPMC ATP bioluminescence assay; type: cell-based, human; settings: 72 hours; single well; over the tested concentrations
# Method: The viability of HPMC after stimulation with FCS, phospholipid prepared according to Example 1 (Vibrated and Non-vibrated), lysophosphatidic acid (LPA), DPPC, DPPC/LPA, POPC, Curosurf, egg-PG (EPG) and the three Intralipid™ products was determined using an ATP assay. This assay measures the light emitted during the ATP dependant oxidation of luciferin in order to accurately quantify the ATP concentration.
# As described in Example 3, primary HPMC are isolated from omental tissue biopsies donated by consenting patients undergoing elective abdominal surgery. Cells are grown to approximately 60% confluence in 96 well plates (Falcon) and used at passage 2. All cells are growth arrested in serum free M199 for 24 hours prior to use.
# An ATP Bioluminescence Assay Kit CLS II (Roche Diagnostics, Cat No 1 699 695, 11857300) was used. It contains ATP Standard, Luciferase and distilled water. A 10 mM EDTA solution was prepared by dissolving 1.8612 g EDTA (Fischer Scientific, Code D/0650/60, Batch 0447430, Mr-372.24) in 500 ml H2O (or 3.7224 g in 1 litre). A BAC-extract solution was prepared by dissolving 1 g Benzalkonium Chloride (Sigma-Aldrich, Cat:-23, 442-7, Lot S22104-334) in 1 litre of 10 mM EDTA. […]
# To mix, rotate the bottle carefully. • 2) Make up an ATP standard solution having a base concentration of 1.65 μM ATP. […] Use distilled water as the control. • 4) Set the Fluostar Optima plate reader to measure luminescence. Set the Fluostar Optima plate reader pump to inject 20 μl of luciferase into each of the required wells. • 5) Place the plate into the plate reader and measure the relative light units (RLU). • 6) Prepare a standard curve such as that shown in FIG. 16 by plotting a graph of RLU against ATP concentration.
# 96 well plates from the HPMC proliferation study were defrosted. […] The ATP concentrations were calculated from the RLU of the samples using the standard curve. As an alternative to using an ATP standard curve, data can be normalised to the un-stimulated control and expressed as “ATP (% of control)”.
# HPMC [3] = experiment: Alamar Blue assay of HPMC proliferation in various tested media; type: cell-based, human; settings: 50/50 v/v Hartmanns solution and supplemented M199; 48 hours; single well
# Method: The suitability of various media for use in forming a dispersion of phospholipid prepared as described in Example 1 or of DPPC was investigated. The Alamar Blue™ assay of HPMC proliferation described in Example 3 was repeated using a single well of cells for each stimulation with a positive control of FCS dispersed in the tested medium, a negative control of the tested medium, and a phospholipid dispersed in the tested medium. The results obtained after 48 hours are shown in FIGS. 13A-13J and discussed below.
smiles,measurement,setting,value
"CCCCCCCCCCCCCCCC(=O)OC[C@H](COP(=O)([O-])OCC[N+](C)(C)C)OC(=O)CCCCCCCCCCCCCCC [DPPC, Dipalmitoyl phosphatidyl choline]",HPMC proliferation compared to the negative control,[1],no significant stimulation of HPMC proliferation
same,HPMC proliferation by ATP assay (ATP % of control) compared to the negative control,HPMC [2],no increase of HPMC proliferation
same,HPMC proliferation response in the first tested medium,HPMC [3],not as great as DPPC in supplemented M199 by itself
